Assay results reported in ChEMBL document CHEMBL1201862, “PubChem BioAssay data set” (2004).
Several values for one entry are separate records, joined by “and”; a condition that tells them apart may be missing. Identical values can stand only once. Activity calls are given as the source filed them.

Key:
[1] = target: SWI/SNF-related matrix-associated actin-dependent regulator of chromatin subfamily A member 2 (Homo sapiens, UniProt P51531); test: Luminescence-based cell-based high throughput dose response assay to identify activators of the function of SWI/SNF related, matrix associated, actin dependent regulator of chromatin, subfamily a, member 2 (SMARCA2, BRM).; format: functional
[2] = Counterscreen for activators of the function of SWI/SNF related, matrix associated, actin dependent regulator of chromatin, subfamily a, member 2 (SMARCA2, BRM): Luminescence-based cell-based high throughput dose response assay to identify non-selective compounds using the VP16 reporter assay.; format: functional
[3] = target: Long-chain-fatty-acid--AMP ligase FadD28 (Mycobacterium tuberculosis, UniProt P9WQ59); test: Fluorescence polarization aasay to screen for inhibitors that compete for the binding of FadD28 to a bisubstrate Measured in Biochemical System Using Plate Reader - 2147-01_Inhibitor_Dose_CherryPick_Activity.; format: functional, Mycobacterium tuberculosis H37Rv
[4] = target: Tyrosine-protein phosphatase non-receptor type 5 (Homo sapiens, UniProt P54829); test: PTPN5 enzyme inhibition – biochemical, fluorescence intensity, uHTS hits, confirmation (AID 602372); format: functional; details: read-out: IC50_Mean
[5] = target: Glucose-6-phosphate 1-dehydrogenase (Homo sapiens, UniProt P11413); test: inhibition of Homo sapiens G6PD, dose series – biochemical, fluorescence, selectivity assay for P. falciparum G6PD inhibitor project, dose response (AID 504792); format: functional
[6] = target: Tyrosine-protein phosphatase non-receptor type 11 (Homo sapiens, UniProt Q06124); test: PTPN11 enzyme inhibitors – biochemical, selectivity assay for STEP inhibitor project, dose response (AID 602367); format: functional; details: read-out: IC50_Mean
[7] = target: Dual specificity protein phosphatase 3 (Homo sapiens, UniProt P51452); test: VHR phosphatase inhibition, dose response, selectivity assay for STEP inhibitor project, biochemical (AID 602374); format: functional; details: read-out: IC50_Mean
[8] = target: Fructose-bisphosphate aldolase (Mycobacterium tuberculosis, UniProt P9WQA3); test: Fluorescence-based biochemical high throughput dose response assay for inhibitors of the fructose-bisphosphate aldolase (FBA) of M. tuberculosis.; format: functional
[9] = microbe, parasite or virus in culture; format: functional; details: Mycobacterium tuberculosis
Beta Lactamase = Beta Lactamase (Pseudomonas aeruginosa, UniProt Q932Y6); test: BLA reporter interference, concentration series – BLA reporter cells, FRET fluorescence, artefact control for NOD2-RIPK2 interaction inhibitor project, dose response (AID 651552); format: functional, cell-based
[10] = Fluorescence-based cell-based high throughput dose response assay for inhibitors of the interaction of nucleotide-binding oligomerization domain containing 2 (NOD2) and the receptor-interacting serine-threonine kinase 2 (RIPK2).; format: functional; details: Homo sapiens
cells = format: functional, cell-based; details: HEK-CNG
Galanin receptor type 3 = Galanin receptor type 3 (Homo sapiens, UniProt O60755); test: Fluorescence-based cell-based primary high throughput dose response assay to identify antagonists of the Galanin Receptor 3 (GalR3).; format: functional
[11] = target: Adenosylmethionine-8-amino-7-oxononanoate aminotransferase (Mycobacterium tuberculosis, UniProt P9WQ81); test: Mycobacterium tuberculosis BioA enzyme inhibitor Measured in Biochemical System Using Plate Reader - 2163-02_Inhibitor_Dose_CherryPick_Activity.; format: functional, Mycobacterium tuberculosis UT205
[12] = inhibition of ARNT PAS-B/TACC3 complex formation – biochemical, AlphaScreen, cherry-picked samples, confirmation (AID 651703); format: functional, Homo sapiens;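 also: His-tagged ARNT PAS-B domain paired with GST-TACC3 E629A dimer coactivator fragment; potency of inhibitors that break up the complex and lower AlphaScreen signal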
[13] = target: Hepatocyte nuclear factor 4-alpha (Homo sapiens, UniProt P41235); format: functional, cell-based;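 also: biochemical luminescence-based dose-response counterscreen measuring inhibition of HNF4 dimerization, run alongside a screen for blockers of ABHD5–perilipin-5 interaction; split luciferase complementation of HNF4 fusion proteins in cell lysate measuring dimerization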
Beta-galactosidase = Beta-galactosidase (Escherichia coli, UniProt Q8VNN2); test: Dose response counterscreen for EBI2 assay utilizing the enzyme, b-galactosidase.; format: functional
[14] = target: Peroxisome proliferator-activated receptor gamma/Nuclear receptor coactivator 1 (Homo sapiens, UniProt P37231); test: TR-FRET dose response biochemical High Throughput Screening assay for agonists of the steroid receptor coactivator 1 (SRC-1) recruitment by the peroxisome proliferator-activated receptor gamma (PPAR gamma): non-selective agonists. [Related pubchem assays (depositor defined):AID1300, AID1808, AID504735, AID631]; format: protein assay
[15] = Counterscreen for inhibitors of Trypanosoma brucei methionyl tRNA synthetase (MetRS): Luminescence-based cell-based high throughput dose response assay to identify compounds that are cytotoxic to Jurkat human T lymphocyte cells.; format: functional
[16] = target: Peroxisome proliferator-activated receptor gamma/Nuclear receptor coactivator 2 (Homo sapiens, UniProt P37231); test: TR-FRET dose response biochemical High Throughput Screening assay for agonists of the steroid receptor coactivator 2 (SRC-2) recruitment by the peroxisome proliferator-activated receptor gamma (PPAR gamma): non-selective agonists. [Related pubchem assays: 1297, 1032 ]; format: functional
[17] = target: Peroxisome proliferator-activated receptor gamma/Nuclear receptor coactivator 3 (Homo sapiens, UniProt P37231); test: TR-FRET dose response biochemical High Throughput Screening assay for agonists of the steroid receptor coactivator 3 (SRC-3) recruitment by the peroxisome proliferator-activated receptor gamma (PPAR gamma): non-selective agonists. [Related pubchem assays: 1301 (Confirmation screen.), 1048 (Primary screen.)]; format: functional
[18] = target: T1, Endoribonuclease toxin MazF (Escherichia coli K-12, UniProt P0AE70); test: substrate-only fluorescence increase artefacts – biochemical, single-stranded RNase substrate, counter-screen for MazEF activator project, dose response (AID 588502); format: functional
T1 sequence (P0AE70 whole entry): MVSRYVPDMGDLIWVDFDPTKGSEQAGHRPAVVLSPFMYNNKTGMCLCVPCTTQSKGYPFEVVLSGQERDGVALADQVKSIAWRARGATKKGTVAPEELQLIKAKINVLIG

[19] = target: T2, Sentrin-specific protease 1 (Homo sapiens, UniProt Q9P0U3); test: Dose response confirmation of small molecule inhibitors of the catalytic domain of the SUMO protease, SENP1 in a FRET assay.; format: functional; details: read-out: IC50_Mean
T2 sequence (Q9P0U3 whole entry): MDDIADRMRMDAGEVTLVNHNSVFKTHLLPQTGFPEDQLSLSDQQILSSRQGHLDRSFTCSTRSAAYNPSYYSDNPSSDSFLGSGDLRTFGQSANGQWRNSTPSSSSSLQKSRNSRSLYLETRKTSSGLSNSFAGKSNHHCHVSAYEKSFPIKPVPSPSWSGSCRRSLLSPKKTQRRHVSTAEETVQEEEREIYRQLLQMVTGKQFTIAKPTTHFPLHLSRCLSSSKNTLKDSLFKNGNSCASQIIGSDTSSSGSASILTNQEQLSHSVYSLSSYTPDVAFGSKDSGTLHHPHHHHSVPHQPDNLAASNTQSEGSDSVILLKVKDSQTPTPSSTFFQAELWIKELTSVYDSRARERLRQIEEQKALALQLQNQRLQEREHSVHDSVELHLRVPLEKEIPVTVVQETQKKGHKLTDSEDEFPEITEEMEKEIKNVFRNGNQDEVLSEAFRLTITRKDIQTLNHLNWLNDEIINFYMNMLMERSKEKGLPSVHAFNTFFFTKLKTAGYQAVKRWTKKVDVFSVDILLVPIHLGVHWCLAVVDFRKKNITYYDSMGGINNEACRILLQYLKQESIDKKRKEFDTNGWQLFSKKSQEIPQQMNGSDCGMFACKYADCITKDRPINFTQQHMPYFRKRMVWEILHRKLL

[20] = target: T2, Sentrin-specific protease 1; test: SENP1 catalytic domain blockers, concentration series – biochemical, kinetic FRET, dose response (AID 651697); format: functional; details: read-out: IC50_Mean
[21] = target: T1, Endoribonuclease toxin MazF; test: activation of MazEF endoribonuclease cleavage – biochemical, fluorescence, single-stranded RNA substrate, uHTS hits, dose response (AID 588481); format: functional
[22] = target: T3, DNA repair and recombination protein RAD54-like (Homo sapiens, UniProt Q92698); test: RAD54 Holliday junction migration blockers – biochemical, fluorescence, cherry-picked samples, dose series, confirmation (AID 651657); format: functional
T3 sequence (Q92698 whole entry): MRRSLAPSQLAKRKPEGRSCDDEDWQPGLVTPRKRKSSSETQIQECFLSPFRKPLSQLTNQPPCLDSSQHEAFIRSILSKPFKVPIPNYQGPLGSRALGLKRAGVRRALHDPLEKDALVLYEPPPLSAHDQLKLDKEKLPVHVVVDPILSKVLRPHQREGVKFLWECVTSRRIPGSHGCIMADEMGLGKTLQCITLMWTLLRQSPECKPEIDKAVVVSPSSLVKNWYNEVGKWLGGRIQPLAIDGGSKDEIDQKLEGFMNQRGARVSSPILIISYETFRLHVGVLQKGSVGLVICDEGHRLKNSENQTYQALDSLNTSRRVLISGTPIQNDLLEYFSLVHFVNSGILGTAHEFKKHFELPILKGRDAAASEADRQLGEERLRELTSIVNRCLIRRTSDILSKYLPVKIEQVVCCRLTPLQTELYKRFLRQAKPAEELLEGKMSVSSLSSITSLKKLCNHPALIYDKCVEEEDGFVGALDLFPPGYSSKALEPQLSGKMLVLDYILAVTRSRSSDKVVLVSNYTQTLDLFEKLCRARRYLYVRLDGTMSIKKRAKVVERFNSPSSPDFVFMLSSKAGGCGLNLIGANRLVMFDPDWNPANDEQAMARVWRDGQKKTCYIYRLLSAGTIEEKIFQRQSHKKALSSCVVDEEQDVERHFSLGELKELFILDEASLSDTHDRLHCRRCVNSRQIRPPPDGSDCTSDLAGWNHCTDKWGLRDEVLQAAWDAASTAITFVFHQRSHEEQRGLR

[23] = target: Vascular endothelial growth factor receptor 2 (Homo sapiens, UniProt P35968); format: functional
Aurora kinase B = Aurora kinase B (Homo sapiens, UniProt Q96GD4); format: functional
Aurora kinase A = target: T4, Aurora kinase A (Homo sapiens, UniProt O14965); format: functional;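 also: value from the Navigating the Kinome kinase panel profiling, panel entry STK6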
T4 sequence (O14965 whole entry): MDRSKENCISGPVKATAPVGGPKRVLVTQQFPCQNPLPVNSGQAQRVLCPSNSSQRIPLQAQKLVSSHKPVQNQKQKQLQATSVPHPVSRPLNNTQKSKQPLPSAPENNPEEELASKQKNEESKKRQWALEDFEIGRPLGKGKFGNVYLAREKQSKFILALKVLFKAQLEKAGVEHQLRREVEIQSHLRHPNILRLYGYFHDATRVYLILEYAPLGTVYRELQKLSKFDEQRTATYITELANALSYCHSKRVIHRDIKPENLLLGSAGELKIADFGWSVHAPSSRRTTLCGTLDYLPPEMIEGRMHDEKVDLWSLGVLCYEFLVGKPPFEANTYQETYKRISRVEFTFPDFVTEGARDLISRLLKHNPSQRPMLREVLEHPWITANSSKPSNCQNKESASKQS

Chain of SWI/SNF-related matrix-associated actin-dependent regulator of chromatin subfamily A member 2 (P51531 whole entry): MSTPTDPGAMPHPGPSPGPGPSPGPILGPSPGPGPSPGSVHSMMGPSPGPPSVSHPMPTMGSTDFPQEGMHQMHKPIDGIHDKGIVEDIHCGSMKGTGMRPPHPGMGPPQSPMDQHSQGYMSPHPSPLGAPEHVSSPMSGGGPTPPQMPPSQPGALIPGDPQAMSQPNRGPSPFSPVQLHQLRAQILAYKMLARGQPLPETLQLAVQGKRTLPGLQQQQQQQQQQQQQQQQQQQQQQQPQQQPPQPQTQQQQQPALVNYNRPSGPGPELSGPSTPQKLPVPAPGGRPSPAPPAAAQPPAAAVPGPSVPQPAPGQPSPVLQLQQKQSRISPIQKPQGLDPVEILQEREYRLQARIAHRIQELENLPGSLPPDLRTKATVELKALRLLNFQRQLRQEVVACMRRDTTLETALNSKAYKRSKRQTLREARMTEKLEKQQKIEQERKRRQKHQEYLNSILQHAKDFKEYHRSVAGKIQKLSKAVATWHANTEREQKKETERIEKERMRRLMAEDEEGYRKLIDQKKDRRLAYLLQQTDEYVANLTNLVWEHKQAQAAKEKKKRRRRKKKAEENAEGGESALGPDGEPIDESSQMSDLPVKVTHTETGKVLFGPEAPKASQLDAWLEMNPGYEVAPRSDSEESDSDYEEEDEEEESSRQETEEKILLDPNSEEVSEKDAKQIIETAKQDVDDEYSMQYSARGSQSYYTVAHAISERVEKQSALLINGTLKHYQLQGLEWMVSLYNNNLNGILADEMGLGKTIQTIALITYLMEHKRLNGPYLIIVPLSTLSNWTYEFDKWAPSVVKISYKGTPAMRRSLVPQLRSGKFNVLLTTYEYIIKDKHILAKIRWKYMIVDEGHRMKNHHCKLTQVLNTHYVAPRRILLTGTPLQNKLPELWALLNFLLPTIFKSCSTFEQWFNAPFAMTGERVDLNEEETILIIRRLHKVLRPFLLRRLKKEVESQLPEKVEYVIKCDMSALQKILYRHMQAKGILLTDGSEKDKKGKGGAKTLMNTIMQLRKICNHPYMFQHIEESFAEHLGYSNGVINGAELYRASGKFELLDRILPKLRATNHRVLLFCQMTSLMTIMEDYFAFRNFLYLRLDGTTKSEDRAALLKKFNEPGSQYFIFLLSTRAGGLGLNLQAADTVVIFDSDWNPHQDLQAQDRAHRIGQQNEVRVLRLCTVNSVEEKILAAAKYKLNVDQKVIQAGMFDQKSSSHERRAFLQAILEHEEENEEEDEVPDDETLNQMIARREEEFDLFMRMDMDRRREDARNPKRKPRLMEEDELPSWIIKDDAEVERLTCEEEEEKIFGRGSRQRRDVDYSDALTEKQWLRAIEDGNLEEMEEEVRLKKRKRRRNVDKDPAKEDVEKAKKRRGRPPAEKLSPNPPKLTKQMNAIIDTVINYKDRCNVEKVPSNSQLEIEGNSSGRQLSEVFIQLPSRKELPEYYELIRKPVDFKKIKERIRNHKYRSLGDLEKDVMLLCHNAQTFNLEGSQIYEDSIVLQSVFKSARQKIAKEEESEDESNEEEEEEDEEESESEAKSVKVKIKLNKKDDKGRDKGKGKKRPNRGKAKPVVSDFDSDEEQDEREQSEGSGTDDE
Chain of Vascular endothelial growth factor receptor 2 (P35968 whole entry): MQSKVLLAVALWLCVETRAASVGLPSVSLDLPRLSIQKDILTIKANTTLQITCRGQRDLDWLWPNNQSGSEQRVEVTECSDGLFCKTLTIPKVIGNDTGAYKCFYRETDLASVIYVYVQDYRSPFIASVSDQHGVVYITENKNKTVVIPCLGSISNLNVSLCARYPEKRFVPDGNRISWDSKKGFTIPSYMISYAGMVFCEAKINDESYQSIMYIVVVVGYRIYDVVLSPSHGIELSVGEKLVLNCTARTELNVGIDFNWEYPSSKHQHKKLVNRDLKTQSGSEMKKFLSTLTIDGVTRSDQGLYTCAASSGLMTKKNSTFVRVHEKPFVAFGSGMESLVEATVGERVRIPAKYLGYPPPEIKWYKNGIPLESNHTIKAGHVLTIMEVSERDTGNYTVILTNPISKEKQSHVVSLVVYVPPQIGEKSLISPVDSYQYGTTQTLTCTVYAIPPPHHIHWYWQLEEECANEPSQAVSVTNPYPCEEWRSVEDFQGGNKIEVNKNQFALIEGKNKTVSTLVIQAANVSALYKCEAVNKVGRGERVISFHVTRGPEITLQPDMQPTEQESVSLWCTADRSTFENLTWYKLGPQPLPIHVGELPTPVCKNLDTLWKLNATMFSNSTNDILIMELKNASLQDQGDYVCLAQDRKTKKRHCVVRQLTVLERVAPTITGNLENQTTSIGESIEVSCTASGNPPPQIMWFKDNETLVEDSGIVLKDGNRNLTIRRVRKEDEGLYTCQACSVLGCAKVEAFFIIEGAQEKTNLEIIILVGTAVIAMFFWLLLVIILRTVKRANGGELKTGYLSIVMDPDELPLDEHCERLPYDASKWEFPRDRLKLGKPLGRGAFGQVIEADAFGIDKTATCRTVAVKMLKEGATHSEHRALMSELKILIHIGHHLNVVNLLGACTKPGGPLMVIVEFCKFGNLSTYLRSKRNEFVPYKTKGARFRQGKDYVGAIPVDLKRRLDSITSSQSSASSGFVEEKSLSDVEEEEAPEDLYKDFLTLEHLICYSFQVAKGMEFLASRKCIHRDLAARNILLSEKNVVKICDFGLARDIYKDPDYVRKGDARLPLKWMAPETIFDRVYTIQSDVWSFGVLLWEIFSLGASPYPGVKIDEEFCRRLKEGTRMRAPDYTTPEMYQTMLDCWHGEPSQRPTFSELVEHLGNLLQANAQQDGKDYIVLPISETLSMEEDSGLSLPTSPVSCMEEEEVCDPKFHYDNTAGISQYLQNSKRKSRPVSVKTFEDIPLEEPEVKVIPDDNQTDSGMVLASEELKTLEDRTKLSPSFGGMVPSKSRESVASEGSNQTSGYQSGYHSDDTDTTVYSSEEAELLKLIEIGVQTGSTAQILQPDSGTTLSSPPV
Chain of Long-chain-fatty-acid--AMP ligase FadD28 (P9WQ59 whole entry): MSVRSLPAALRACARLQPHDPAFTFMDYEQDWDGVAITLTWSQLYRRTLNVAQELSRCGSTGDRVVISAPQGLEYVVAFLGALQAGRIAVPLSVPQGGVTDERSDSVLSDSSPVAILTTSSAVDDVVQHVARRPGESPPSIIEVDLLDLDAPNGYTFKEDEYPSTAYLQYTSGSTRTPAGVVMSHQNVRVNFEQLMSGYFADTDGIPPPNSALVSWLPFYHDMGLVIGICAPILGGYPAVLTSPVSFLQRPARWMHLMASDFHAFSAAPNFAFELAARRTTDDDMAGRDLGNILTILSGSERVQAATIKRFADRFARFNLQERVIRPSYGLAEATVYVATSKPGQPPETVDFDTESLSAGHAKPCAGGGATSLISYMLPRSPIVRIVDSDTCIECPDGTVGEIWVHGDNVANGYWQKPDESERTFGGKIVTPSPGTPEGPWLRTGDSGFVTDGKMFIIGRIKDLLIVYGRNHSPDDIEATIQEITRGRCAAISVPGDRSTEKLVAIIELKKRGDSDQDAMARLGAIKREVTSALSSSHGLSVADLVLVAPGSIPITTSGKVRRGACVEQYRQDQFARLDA
Chain of Galanin receptor type 3 (O60755 whole entry): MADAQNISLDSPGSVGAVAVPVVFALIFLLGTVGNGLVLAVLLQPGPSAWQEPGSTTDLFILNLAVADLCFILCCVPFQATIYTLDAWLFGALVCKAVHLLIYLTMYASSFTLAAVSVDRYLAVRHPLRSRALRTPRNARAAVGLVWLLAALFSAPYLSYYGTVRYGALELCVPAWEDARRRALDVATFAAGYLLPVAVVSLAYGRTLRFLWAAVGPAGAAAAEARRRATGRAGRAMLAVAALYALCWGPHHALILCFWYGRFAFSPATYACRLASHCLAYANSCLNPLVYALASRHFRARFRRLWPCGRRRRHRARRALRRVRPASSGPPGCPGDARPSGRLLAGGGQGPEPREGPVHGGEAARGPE
Chain of Beta-galactosidase (Q8VNN2 whole entry): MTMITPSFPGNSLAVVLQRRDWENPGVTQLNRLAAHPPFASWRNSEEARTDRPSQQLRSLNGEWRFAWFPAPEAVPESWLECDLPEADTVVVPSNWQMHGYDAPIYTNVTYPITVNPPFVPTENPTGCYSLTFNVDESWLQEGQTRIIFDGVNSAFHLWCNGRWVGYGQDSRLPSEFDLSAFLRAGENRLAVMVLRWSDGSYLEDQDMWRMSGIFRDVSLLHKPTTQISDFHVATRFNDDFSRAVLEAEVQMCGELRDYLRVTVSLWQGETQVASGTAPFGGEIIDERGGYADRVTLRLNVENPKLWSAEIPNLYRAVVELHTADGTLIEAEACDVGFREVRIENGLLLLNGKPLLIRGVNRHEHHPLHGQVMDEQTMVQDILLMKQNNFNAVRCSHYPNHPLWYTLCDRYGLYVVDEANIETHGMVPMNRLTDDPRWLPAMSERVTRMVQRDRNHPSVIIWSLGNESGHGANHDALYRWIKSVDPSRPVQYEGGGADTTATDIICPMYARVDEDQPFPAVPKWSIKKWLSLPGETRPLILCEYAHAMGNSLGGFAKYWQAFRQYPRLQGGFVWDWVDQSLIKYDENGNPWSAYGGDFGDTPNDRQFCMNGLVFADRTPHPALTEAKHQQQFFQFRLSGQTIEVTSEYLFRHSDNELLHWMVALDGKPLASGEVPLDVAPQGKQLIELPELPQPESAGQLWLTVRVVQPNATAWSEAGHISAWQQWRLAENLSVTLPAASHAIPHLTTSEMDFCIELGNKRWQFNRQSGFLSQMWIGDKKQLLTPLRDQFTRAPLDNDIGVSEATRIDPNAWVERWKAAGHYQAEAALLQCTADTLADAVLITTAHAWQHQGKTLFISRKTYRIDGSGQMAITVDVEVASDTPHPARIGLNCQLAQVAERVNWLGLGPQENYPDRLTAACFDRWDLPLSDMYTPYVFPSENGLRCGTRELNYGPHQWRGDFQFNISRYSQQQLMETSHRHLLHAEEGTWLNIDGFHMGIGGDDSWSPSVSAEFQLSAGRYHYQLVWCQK

## O=c1[nH]c2ccccc2nc1-c1cccs1
[1]
  EC50: > 91.1 µM (inactive)

## Oc1nc2ccccc2nc1-c1cccs1
[2]
  EC50: > 91.1 µM (inactive)

## CC(C)CCN=C(S)Nc1ccc2nc3n(c(=O)c2c1)CCCCC3
[3]
  AC50: 39.4 µM (active)

## O=S(=O)(Nc1ccc(Cl)cc1)c1ccc(N2CCOCC2)c(NC(=S)NCCN2CCOCC2)c1
[4]
  IC50: 8.03 µM (active)
[5]
  IC50: > 80 µM (inactive)
[6]
  IC50: 1.1 µM (active)
[7]
  IC50: 0.342 µM (active)

## COC(=O)Nc1nnc(-c2ccccc2OC)s1
[8]
  IC50: 1.9 µM (active)

## Cc1ccc(-n2nc3c(N4CCC(C(=O)NCc5ccccc5C)CC4)nnc(C)c3c2C)cc1
[9]
  CC50: 27.8 µM (active)
Beta Lactamase
  IC50: 16.2 µM (inactive)
[10]
  IC50: 8.76 µM (active)

## CSc1nc(N)c(C#N)c(-c2ccccc2Cl)c1C#N
cells
  EC50: > 29.9 µM (inactive)
Galanin receptor type 3
  IC50: 7.09 µM (active)

## COc1ccc(C(=O)Nc2cccc(NC(=O)c3cccs3)c2)cc1
[11]
  AC50: 4.26 µM (active)

## NC(=O)c1cn(-c2ccccc2)nc1-c1cc2ccccc2oc1=O
cells
  EC50: > 29.9 µM (inactive)
Galanin receptor type 3
  IC50: 13 µM (inactive)

## CCCCCCNc1cc2n(c(=O)n1)CCc1cc(OC)c(OC)cc1-2
[12]
  AC50: 101 µM (active)

## COc1ccc(/C=C\C(=O)CC(O)(c2ccccc2)C(F)(F)F)cc1 (stereo unspecified)
[13]
  IC50: 3.93 µM (active)

## O=C(c1cc2ccccc2o1)N1CCN(S(=O)(=O)c2ccc(F)c(F)c2F)CC1
Beta-galactosidase
  IC50: > 80 µM (inactive)

## CN1Cc2c(N3CCOCC3)nc3sc(C#N)c(N)c3c2CC1(C)C
[8]
  IC50: 1.06 µM (active)

## N#Cc1ccccc1CSc1ccc(-c2nc3ccccc3[nH]2)cn1
[14]
  EC50: > 79.4 µM (inactive)
[15]
  IC50: 26.5 µM (inactive)
[16]
  EC50: > 79.4 µM (not active)
[17]
  EC50: > 79.4 µM (not active)

## COc1ccc([C@H]2CC(=O)C=C(C#CC(C)(C)C)C2)cc1
Beta-galactosidase
  IC50: > 80 µM (inactive)

## O=C(Nc1cc(F)cc(F)c1)c1ccc(NCCc2ccccc2)c([N+](=O)[O-])c1
[18]
  EC50: 88.4 µM (inactive)
[19]
  IC50: 14 µM (active)
[20]
  IC50: 26.2 µM (inactive)
[21]
  EC50: > 99 µM (inactive)

## O=C(COC(=O)c1ccc(Cl)nc1)Nc1nnc(-c2ccccc2)o1
[12]
  AC50: 115 µM (active)

## Nc1ncnc2c1ncn2[C@@H]1O[C@H](CNCc2ccc(OCC(=O)Nc3nccs3)cc2)[C@@H](O)[C@H]1O
[3]
  AC50: 32.3 µM (active)

## CCN(CC)CCNc1ccc(CO)c2oc3ccccc3c(=O)c12
[19]
  IC50: 28.4 µM (inactive)
[22]
  AC50: 18.7 µM (active)
[20]
  IC50: 22.3 µM (inactive)

## CCn1c(=O)c(=O)n(CC)c2cc(S(=O)(=O)Nc3cc(C)ccc3C)ccc21
[11]
  AC50: 13.6 µM (active)

## CC(=O)c1cccc(-c2cnc3c(NC=O)cc(-c4ccc(N5CCN(C)CC5)cc4)cn23)c1
[2]
  EC50: > 91.2 µM (inactive)
[1]
  EC50: > 30.4 µM (inactive)

## COc1cccc(S(=O)(=O)Nc2ccc3c(c2)C(=NO)c2ccccc2-3)c1
[23]
  Ki: 3.98 µM (active) and 794 nM (active)
Aurora kinase B
  Ki: 6.31 nM (active) and 15.8 nM (active)
Aurora kinase A
  Ki: > 2 µM (inactive) and 2 µM (active)

## CC(C)(C)NC(=O)C(c1ccccc1F)n1c(=O)c(-c2ccco2)nc2ccccc21 (stereo unspecified)
[13]
  IC50: 1.85 µM (active)
